Experimental data: patent US8263643B2, “Polyphenol compounds with modulating neurotransmitter release” (Sungkyunkwan University Foundation for Corporate …, priority 2007, dated 2012)

Columns and labels:
[1] = molecular target: T1, membrane fusion caused by SNARE (SNAP25, syntaxin 1A, VAMP2) (UniProt P60879+P63045+Q16623); assay: Membrane fusion assay with SNARE-reconstituted liposomes (fluorescence); type: biochemical; details: for Membrane fusion caused by SNARE (% of fusion without inhibitor) / remaining activity at 20 µM: 20 μM phenolic compound, 100% = no inhibitor added; for remaining activity at 20 µM: read-out: Membrane fusion caused by SNARE (% of fusion without inhibitor)
T1 construct: made in house; host or cells: E. coli (Codon (+) RIL, Novagen)
Experimental: In order to produce SNARE proteins, SNARE proteins, such as SNAP25 (NM011428), syntaxin 1A (AF217197), and VAMP2 (NM012663), were purified in biologically transformed E. coli (Codon (+) RIL, Novagen).
In order to prepare liposome (fine membrane) marked with a fluorescent substance, POPC (62 mol %), DOPS (35 mol %), NBD-PS (1.5 mol %) and a fluorescent substance Rhodamin-PE (1.5 mol %) were mixed to obtain 10 mM of liposome (v-vesicle). Also, in order to prepare a liposome not marked with a fluorescent substance, DOPS and POPC were mixed in a molar concentration ratio of 35:65 to obtain 50 mM of liposome (t-vesicle). In order to prepare a complex of the purified SNAP25 and syntaxin 1a, the SNAP25 and the syntaxin 1a were mixed in a molar concentration ratio of 1:1, and then were reacted at room temperature for 1 hour. Then, the resultant mixture and the liposome not marked with a fluorescent substance were mixed in a molar ratio of 100:1. The VAMP2 and the liposome marked with a fluorescent substance were mixed in a molar ratio of 50:1. Then, each of the two kinds of liposomes was dialyzed by using 10 kDa dialyzing membrane through agitation at 4° C. for 24 hours, and the liposomes were mixed in a ratio of 3:7 (v-vesicle t-visicle). Next, fluorescence was measured by using a fluorometer (SpectraMax M2 manufactured by Molecular Device).
Herein, 100% indicates the degree of membrane fusion in the state where no inhibitor was added. As the value is smaller, the inhibiting degree is higher.

[2] = molecular target: T2, SNARE complex (SNAP25, SynH3, Vps) (UniProt P60879+P63045+Q16623); assay: SDS-PAGE analysis of SNARE complex formation; type: biochemical; details: for SNARE complex formation (%): control = 100, footnote: [phenolic compound]:SNAP-25 = 1:1, SNARE proteins 10 μM each, polyphenol 100 μM, room temperature 30 min
T2 construct: SynH3 (AF217197); Vps (NM012663); made in house; host or cells: E. coli (Codon (+) RIL, Novagen)
Experimental: A SNARE complex is strong enough so as not to be untwisted by SDS. On the basis of such a property, a SDS-PAGE analysis was performed in order to determine the formation of a SNARE complex. Polyphenol compounds used in the present Example were purchased from Sigma-Aldrich, Wako Chemical, and Extrasynthese.
In order to produce SNARE proteins, SNARE proteins, such as, SNAP25 (NM011428), syntaxin 1A (AF217197), VAMP2 (NM012663), SynH3 (AF217197), and Vps (NM012663), were purified in biologically transformed E. coli (Codon (+) RIL, Novagen).
Then, the materials were quickly mixed by a vortex, and were reacted at room temperature for 30 minutes. […]

[3] = molar concentration ratio phenolic compound:SNAP-25, average of at least three measurements

T2 sequence (P60879 whole entry): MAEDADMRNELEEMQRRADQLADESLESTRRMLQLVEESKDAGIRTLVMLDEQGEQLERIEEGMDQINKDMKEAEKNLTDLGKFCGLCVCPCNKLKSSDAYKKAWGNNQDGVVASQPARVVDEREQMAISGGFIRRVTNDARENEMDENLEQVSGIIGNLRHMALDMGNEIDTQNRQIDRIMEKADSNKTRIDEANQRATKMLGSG
T2 sequence (Q16623 192-254 limits assumed): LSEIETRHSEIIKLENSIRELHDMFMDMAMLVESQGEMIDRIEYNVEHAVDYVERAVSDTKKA
T2 sequence (P63045 2-94 limits assumed): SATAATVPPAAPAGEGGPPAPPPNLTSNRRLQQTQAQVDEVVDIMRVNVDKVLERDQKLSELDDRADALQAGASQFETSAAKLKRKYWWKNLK
T1 sequence (P60879 whole entry, the tested form may be a part): as the sequence (P60879 whole entry) above
T1 sequence (Q16623 whole entry, the tested form may be a part): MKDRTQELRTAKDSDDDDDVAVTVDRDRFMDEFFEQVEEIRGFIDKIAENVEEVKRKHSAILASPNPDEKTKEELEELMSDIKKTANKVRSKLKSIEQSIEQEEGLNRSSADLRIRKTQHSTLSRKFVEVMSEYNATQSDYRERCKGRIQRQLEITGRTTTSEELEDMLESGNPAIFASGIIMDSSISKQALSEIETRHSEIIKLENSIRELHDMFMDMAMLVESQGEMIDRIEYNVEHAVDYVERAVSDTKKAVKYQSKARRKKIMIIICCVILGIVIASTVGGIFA
T1 sequence (P63045 whole entry, the tested form may be a part): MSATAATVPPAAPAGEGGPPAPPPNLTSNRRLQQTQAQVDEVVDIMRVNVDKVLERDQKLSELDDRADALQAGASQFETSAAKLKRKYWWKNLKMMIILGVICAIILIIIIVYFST

Structure (SMILES): Oc1cc(O)c2c(c1)O[C@H](c1ccc(O)c(O)c1)[C@@H](O)C2 [(+)-Catechin]
- Membrane fusion caused by SNARE (% of fusion without inhibitor) [1]: 89.15 ± 1.19%
- SNARE complex formation (%) [2]: 105.02 ± 11.37%

Structure (SMILES): Oc1cc(O)c2c(c1)O[C@H](c1ccc(O)c(O)c1)[C@H](O)C2 [(−)-Epicatechin]
- Membrane fusion caused by SNARE (% of fusion without inhibitor) [1]: 97.98 ± 1.50%
- SNARE complex formation (%) [2]: 114.55 ± 5.00%

Structure (SMILES): O=c1cc(-c2ccc(O)cc2)oc2cc(O)cc(O)c12 [Apigenin]
- remaining activity at 20 µM [1]: 96.9 ± 7.99%
- SNARE complex formation (%) [2]: 96.94 ± 7.99%

Structure (SMILES): O=C(O)/C=C/c1ccc(O)c(O)c1 [Caffeic acid]
- remaining activity at 20 µM [1]: 125 ± 7.45%
- SNARE complex formation (%) [2]: 93.33 ± 12.20%

Structure (SMILES): O=C(/C=C/c1ccc(O)c(O)c1)O[C@@H]1C[C@](O)(C(=O)O)C[C@@H](O)[C@H]1O [Chlorogenic acid]
- remaining activity at 20 µM [1]: 134 ± 1.49%
- SNARE complex formation (%) [2]: 100.78 ± 13.62%

Structure (SMILES): O=c1cc(-c2ccccc2)oc2cc(O)cc(O)c12 [Chrysin]
- remaining activity at 20 µM [1]: 121 ± 1.27%
- SNARE complex formation (%) [2]: 98.12 ± 6.56%

Structure (SMILES): Oc1cc(O)c2cc(O)c(-c3ccc(O)c(O)c3)[o+]c2c1 [Cyanidin]
- remaining activity at 20 µM [1]: 7.23 ± 1.08%
- SNARE complex formation (%) [2]: 67.12 ± 20.31 %

Structure (SMILES): O=c1c(-c2ccc(O)cc2)coc2cc(O)ccc12 [Daidzein]
- remaining activity at 20 µM [1]: 113 ± 13.1%
- SNARE complex formation (%) [2]: 104.06 ± 24.43%

Structure (SMILES): Oc1cc(O)c2cc(O)c(-c3cc(O)c(O)c(O)c3)[o+]c2c1 [Delphinidin]
- remaining activity at 20 µM [1]: 37.5 ± 3.45%
- SNARE complex formation (%) [2]: 60.53 ± 18.88 %

Structure (SMILES): O=C(O[C@@H]1Cc2c(O)cc(O)cc2O[C@@H]1c1cc(O)c(O)c(O)c1)c1cc(O)c(O)c(O)c1 [EGCG, Epigallocatechin gallate]
- Membrane fusion caused by SNARE (% of fusion without inhibitor) [1]: 57.59 ± 3.39 %
- SNARE complex formation (%) [2]: 112.38 ± 10.43%

Structure (SMILES): O=c1oc2c(O)c(O)cc3c(=O)oc4c(O)c(O)cc1c4c23 [Ellagic acid]
- remaining activity at 20 µM [1]: 22 ± 2.05%
- Reduction of membrane fusion (in words) ([1]; FIG. 3): can reduce membrane fusion
- Ratio for inhibition by 50% (IR50), membrane fusion [1, 3]: 7.31
- Inhibition of SNARE complex formation (in words) ([2]; FIG. 2, concentration series): inhibit the formation of a SNARE complex by 50% at a low concentration
- SNARE complex formation (%) [2]: 87.54 ± 9.50 %
- Ratio for inhibition by 50% (IR50), SNARE complex formation [2, 3]: 27.8

Structure (SMILES): COc1cc(/C=C/C(=O)O)ccc1O [Ferulic acid]
- remaining activity at 20 µM [1]: 118 ± 2.79%
- SNARE complex formation (%) [2]: 93.38 ± 14.39%

Structure (SMILES): O=c1c(O)c(-c2ccc(O)c(O)c2)oc2cc(O)ccc12 [Fisetin]
- remaining activity at 20 µM [1]: 32.1 ± 4.14%
- SNARE complex formation (%) [2]: 90.14 ± 10.42%

Structure (SMILES): O=c1c(-c2ccc(O)cc2)coc2cc(O)cc(O)c12 [Genistein]
- remaining activity at 20 µM [1]: 119 ± 18.1%
- SNARE complex formation (%) [2]: 96.76 ± 8.91%

Structure (SMILES): O=C(O)c1cc(O)ccc1O [Gentisic acid]
- remaining activity at 20 µM [1]: 96.7 ± 2.38%
- SNARE complex formation (%) [2]: 100.16 ± 2.19%

Structure (SMILES): COc1cc2c(c(OC)c1OC)-c1c(cc3c(c1OC)OCO3)C[C@H](C)[C@H](C)C2 [Gomisiin N]
- Membrane fusion caused by SNARE (% of fusion without inhibitor) [1]: 92.31 ± 2.37%
- SNARE complex formation (%) [2]: 99.04 ± 5.17%

Structure (SMILES): COc1cc2c(c(OC)c1OC)-c1c(cc3c(c1OC)OCO3)C[C@H](C)[C@](C)(O)C2 [Gomisin A]
- Membrane fusion caused by SNARE (% of fusion without inhibitor) [1]: 79.63 ± 7.58%
- SNARE complex formation (%) [2]: 97.99 ± 0.87%

Structure (SMILES): O=c1c(O)c(-c2ccc(O)c(O)c2)oc2c(O[C@@H]3O[C@H](CO)[C@@H](O)[C@H](O)[C@H]3O)c(O)cc(O)c12 [Gossypin]
- Membrane fusion caused by SNARE (% of fusion without inhibitor) [1]: 103.19 ± 9.01%

Structure (SMILES): COc1ccc([C@@H]2CC(=O)c3c(O)cc(O)cc3O2)cc1O [Hesperetin]
- remaining activity at 20 µM [1]: 107 ± 2.29%
- SNARE complex formation (%) [2]: 114.55 ± 5.00%

Structure (SMILES): O=c1c(O)c(-c2ccc(O[C@@H]3O[C@H](CO)[C@@H](O)[C@H](O)[C@H]3O)c(O)c2)oc2cc(O)cc(O)c12 [Spiraeoside]
- remaining activity at 20 µM [1]: 107 ± 6.72%

Structure (SMILES): O=C1c2c(O)cc(O)cc2O[C@H](c2ccc(O)c(O)c2)[C@H]1O [Taxifolin]
- remaining activity at 20 µM [1]: 109 ± 3.92%
